{
  "source": "patent US20160097044A1",
  "about": "“Antimicrobial Enzyme Fusions Reduce Resistance and Kill Intracellular Staphylococcus aureus” (The United States of America, as Represented by the …, priority 2014, published 2016)",
  "key": {"[1]": {"tested_on": "S. aureus strain ALR", "assay": "Rat nasal colonization model", "assay_type": "in vivo, Wistar rats", "source_text": "FIGS. 1a-1c depict peptidoglycan hydrolase construct schematics, resistance development and effectiveness in eradicating S. aureus carriage in a rat colonization model. FIG. 1a is a schematic of the peptidoglycan hydrolase constructs. Domains: CHAP endopeptidase (CHAP, red box); N-acetylmuramoyl-L-alanine amidase (AMID, green box); M23 endopeptidase (PEP, blue oval); CBDs (LysK SH3b, gold diamond; lysostaphin SH3b, gold diamond with dot); protein transduction domain (PTD, blue circle); hexahistidine purification tag (His6). Domains are not to scale. Specific peptidoglycan cut sites are illustrated in FIG. 3a. FIG. 1b depicts in vitro antimicrobial resistance development. Engineered triple fusions K-L and L-K suppress antimicrobial resistance development compared to LysK (K), lysostaphin (L), or a combination of equimolar concentrations of both (L+K). Changes in Minimum Inhibitory Concentrations (MIC) are depicted as a fold-change at the tenth round of sublethal exposure compared to the first exposure, with the average fold-change of 4 replicates in red. Error bars=SEM. First exposure MICs: Lysostaphin, 0.77 μg/ml (27 nM); LysK, 47 μg/ml (840 nM); Lysostaphin and LysK (L+K) in combination 0.2 μg/ml (7 nM and 3 nM, respectively); triple fusion K-L, 7 μg/ml (97 nM); triple fusion L-K, 7.8 μg/ml (107 nM). FIG. 1c depicts reduction in colonization in a rat nasal carriage model. Rats were inoculated with S. aureus strain ALR on Day 1. After 5 days, the rats were treated twice daily for 3 days with 20 μl of a 10 mg/ml solution of each enzyme. The rat noses were excised on day 10, homogenized, and quantitative cultures were performed. Each point represents the CFU recovered from an individual rat. Bars indicate the median CFU/nose recovered from treated rats. […] Data were compiled from five independent experiments. Lyso=commercially purchased lysostaphin (AMBI, Tarrytown, N.Y.). Statistical comparisons were made with the Mann-Whitney test. SEQ ID NOs of depicted peptidoglycan hydrolase constructs: Lysostaphin (SEQ ID NO:1); Lysostaphin-PTD1-4, 6-12 (SEQ ID NOs:9, 11, 13, 15, 17, 19, 21, 23, 25, 27, 29, respectively); LysK (SEQ ID NO:3); LysK-PTD1-11 (SEQ ID NOs: 31, 33, 35, 37, 39, 41, 43, 45, 47, 49, 51, respectively); LysK-Lysostaphin Fusion K-L (SEQ ID NO:5); K-L-PTD1-4, 6-11 (SEQ ID NOs:53, 55, 57, 59, 61, 63, 65, 67, 69, 71, respectively); Lysostaphin-LysK Fusion L-K (SEQ ID NO:7).\nReduction in nasal colonization was observed when rats were challenged on day 0 with 10^7 CFU S. aureus strain ALR and then treated twice per day on days 5, 6, and 7 with 10 μl of 2% mupirocin calcium ointment (Bactroban Nasal) or petrolatum/softisan placebo. Noses from rats were homogenized and cultured quantitatively on day 10. Each point represents the CFU recovered from an individual rat, and the data were compiled from two independent experiments. Data were analyzed by the Mann-Whitney test, and horizontal lines represent median values. Mupirocin reduced colonization ˜98% compared to the placebo control.\nThe rat nasal colonization model is an adaptation of the mouse nasal colonization model that we described previously (Schaffer et al. 2006. Infect. Immun. 74:2145-2153). All animal experiments were conducted in accordance with a protocol approved by the appropriate Institutional Animal Care and Use Committees. Wistar rats (5 to 6 wks of age) were obtained from Charles River Laboratories (Wilmington, Mass.) and given food and water ad libitum. The animals were housed two per cage in a modified barrier facility under viral antibody-free conditions. The rats were given drinking water containing streptomycin sulfate (0.5 g/liter; Sigma) 1 day prior to bacterial inoculation and for the course of the experiment. The drinking water and cages were changed three times per week. […]"}, "[2]": {"tested_on": "S. aureus Newbould 305", "assay": "Turbidity reduction assay", "assay_type": "cell-based", "details": "1 μM enzyme, cells at OD600nm 1.0, FIG. 6a", "description": "(§1) FIG. 6a depicts the specific activity of peptidoglycan hydrolase fusion constructs in vitro in a turbidity reduction assay with S. aureus Newbould 305 resuspended in lysis buffer to an OD600nm of 1.0 and treated with 1 μM final concentrations of each peptidoglycan hydrolase. The maximum specific activity for three experiments are represented as an average with SEM error bars. FIG. 6b depicts the bacterial burden in mice with mastitis treated with recombinant peptidoglycan hydrolases. Colony Forming Units (CFUs) from infected murine mammary glands following a single treatment with 50 μl of 25 μM peptidoglycan hydrolase (1.25 nmol). Each data point represents the average of duplicate bacterial platings. The horizontal bars represent the average CFU/mg for each group. FIG. 6c illustrates the TNFα response in mice with mastitis that were treated with peptidoglycan hydrolases. Data represents a minimum of 7 measurements in duplicate. Log TNFα was used for statistical analysis. Single asterisks indicate a significant difference from buffer control (p<0.05); double asterisks indicate a significant difference from the parental enzyme (p<0.05).\nFIG. 7 depicts a turbidity reduction assay of select peptidoglycan hydrolases against S. aureus Newbould 305. Bacterial cells were resuspended in lysis buffer to an OD600nm of 1.0 and lysed with 1 μM final concentrations of each peptidoglycan hydrolase. The maximum rate of ΔOD of three experiments are represented as an average with error bars representing SEM. Double asterisks indicate significant difference from parental. Mean comparisons were performed with one way ANOVA (P=3.3×10^−5) with t test post hoc analysis with Sidák adjusted alpha (p<0.01)."}, "[3]": {"tested_on": "S. aureus Newbould 305", "assay": "Murine model of mastitis, bacterial load", "assay_type": "in vivo, C57BL6/SJL mice", "details": "single 1.25 nmoles intramammary infusion 30 minutes post infection, 18 h", "description": "as §1\nTo evaluate the efficacy of purified, individually administered peptidoglycan hydrolases in a murine model of bovine mastitis, female C57BL6/SJL mice were challenged by the intramammary route with 100 CFU S. aureus Newbould 305 in 50 μl buffer. A single 1.25 nmoles intramammary infusion of each desired peptidoglycan hydrolase (50 μl of a 25 μM solution) or 50 μl PBS was given 30 minutes post infection [with up to six glands treated per animal, each gland receiving a unique treatment] as described earlier (Schmelcher et al. 2012. Appl. Environ. Microbiol. 78:2297-2305; Kerr et al. 2001. Nat. Biotechnol. 19:66-70). Dams were euthanized 18 h post infusion, the mammary glands were aseptically dissected, and portions of the gland were used for determination of bacterial load and TNFα concentrations, as described previously (Schmelcher et al., supra).\nStatistical analysis: The variables were analyzed as two-factor mixed models with Treatment as the factor and Mouse as random Blocks. This model […] within mouse correlations. Log(TNFα) was used. The variance grouping technique was used for log CFU and log TNFα to correct for variance heterogeneity. Means comparisons were done with Sidak adjusted p-values so that the experiment-wise error was 0.05. Log(TNFα) is back-transformed to the original units for graphing."}, "[4]": {"tested_on": "S. aureus strain Newman", "assay_type": "cell-based", "details": "tenth round compared to first exposure", "description": "For the MIC repeated exposure method, MIC determinations were performed with S. aureus strain Newman. 100 μl of S. aureus strain Newman culture that survived at ½ the MIC (the first well with visible growth) for each round was inoculated into 5 ml TSB and cultivated to mid-log phase growth. This culture was used as the inoculum for the next round of MIC exposure (overnight growth), and the cycle was repeated for 10 rounds.\nDevelopment of resistance to the triple-acting fusion enzymes was tested on S. aureus strain Newman and compared to both parental enzymes applied individually or simultaneously. […] Survivors of the ten round exposure to peptidoglycan hydrolase were passaged five times in medium with no peptidoglycan hydrolase added. […] We compared our triple-acting fusions to small molecule antibiotics in similar assays."}, "[5]": {"tested_on": "intracellular S. aureus strain ISP479C in human brain microvascular endothelial cells (hBMEC)", "assay": "Intracellular S. aureus eradication assay in hBMEC", "assay_type": "cell-based", "details": "5 μg/ml, 1 h", "source_text": "FIGS. 5a-5e depict peptidoglycan hydrolase-protein transduction domain (PGH-PTD) eradication of intracellular S. aureus in cultured cells. Cultured cells were infected, treated with gentamicin to kill extracellular S. aureus, and then treated with the peptidoglycan hydrolases indicated. All results are standardized to the gentamicin (GENT) only control. Nomenclature of the peptidoglycan hydrolase constructs is as in FIG. 1. Asterisks indicate statistical significance detected with single factor ANOVA (α=0.05) with paired t-test posthoc analyses α=0.05 adjusted with Sidák correction for multiple comparisons (for all cases p<0.01). […] Error bars represent SEM. […] Yellow staining in the combined panel represents intracellular co-localization (in a single plane as determined by z-stack analysis) of both S. aureus and K-L-PTD1 (blue arrow). […]\nThree similar intracellular S. aureus eradication assays from three different labs were optimized for (A) a cultured bovine mammary epithelial cell line (MAC-T, Nexia Biotechnologies, Quebec, Canada; Almeida, supra), (B) primary C57BL/6 mouse-derived osteoblasts (mOBs) (McCall et al. 2008. J. Bone Miner. Res. 23: 30-40) or (C) human brain microvascular endothelial cells (hBMEC; Stins, supra). […] The cell lysate was subjected to serial dilution plating, and the resultant CFUs were counted and normalized to the gentamicin control for each assay. […]"}},
  "data": [
    {"compound": "C/C(=C\\C(=O)OCCCCCCCCC(=O)O)C[C@@H]1OC[C@H](C[C@@H]2O[C@H]2[C@@H](C)[C@H](C)O)[C@@H](O)[C@H]1O", "note": "[Mupirocin, mupirocin, reference compound]", "values": [
      {"measurement": "reduction in nasal colonization compared to placebo control", "setting": "[1]; 10 μl of 2% mupirocin calcium ointment twice per day on days 5, 6, 7, separate experiment", "value": 98, "unit": "%"}
    ]},
    {"compound": "L-PTD9: lysostaphin with PTD 9 (TAT 48-60); SEQ ID NO:23", "values": [
      {"measurement": "turbidity reduction (in vitro lytic) activity", "setting": "[2]", "value": "virtually inactive"},
      {"measurement": "turbidity reduction (in vitro lytic) activity", "setting": "[2]; listed as 1-PTD9", "value": "reduced the in vitro activity"},
      {"measurement": "bacterial load / clearance of mammary glands (in words)", "setting": "[3]", "value": "capable of reducing bacterial load within the mouse mammary glands relative to the PBS buffer control"}
    ]},
    {"compound": "Trimethoprim/sulfamethoxazole [reference compound]", "values": [
      {"measurement": "increase in MIC after 10 rounds of sub-lethal exposure", "setting": "[4]", "value": 6, "unit": "fold"}
    ]},
    {"compound": "1-PTD12: lysostaphin with PTD 12 (TAT 49-57); SEQ ID NO:29", "values": [
      {"measurement": "intracellular S. aureus CFUs relative to gentamicin only control", "setting": "[5]", "value": "reduce the intracellular S. aureus strain ISP479C"}
    ]},
    {"compound": "[H]/N=C(/N)N[C@H]1[C@H](O)[C@@H](O)[C@H](O[C@@H]2O[C@@H](C)[C@](O)(C=O)[C@H]2O[C@@H]2O[C@@H](CO)[C@H](O)[C@@H](O)[C@@H]2NC)[C@@H](N/C(N)=N\\[H])[C@@H]1O", "note": "[streptomycin, reference compound]", "values": [
      {"measurement": "increase in MIC after 10 rounds of sub-lethal exposure", "setting": "[4]", "value": 13, "unit": "fold"}
    ]},
    {"compound": "lysostaphin (AMBI, Tarrytown, N.Y.): commercially purchased lysostaphin (AMBI, Tarrytown, N.Y.)", "values": [
      {"measurement": "decrease in CFU/nose (nasal colonization) compared to rats treated with buffer", "setting": "[1]; 200 μg intranasally twice a day on days 5, 6, 7, noses cultured day 10", "value": 87, "unit": "%"}
    ]}
  ]
}
